Measured values as given in patent US10294202B2, “Pyrrolidinones as herbicides” (FMC Corporation, priority 2013, dated 2019).

Legend:
rice = test: Test B flooded paddy test; assay type: in vivo, Oryza sativa; settings: 500 g ai/ha, Flood; scale of 0 to 100 where 0 is no effect and 100 is complete control
How it was run: (§1)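 Treatment was made at the 2-leaf stage by dosing the standing floodwater, kept 3 cm above soil level for the whole test. Greenhouse exposure lasted 13 to 15 days. Response is a visual percent rating relative to controls, where a dash indicates no test result.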

corn = test: Test A pre-/postemergence herbicide test; assay type: in vivo, Zea mays; settings: Postemergence
How it was run: (§2)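 Directed soil spray to seeded pots (preemergence) or spray onto one- to two-leaf seedlings 2–10 cm tall (postemergence); loam/sand substrate throughout. Evaluated visually after about 10 days against untreated plants, 0 = no effect, 100 = complete control.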

kochia = test: Test A pre-/postemergence herbicide test; assay type: in vivo, Kochia scoparia
How it was run: as §2

wheat = test: Test A pre-/postemergence herbicide test; assay type: in vivo, Triticum aestivum; settings: Postemergence
How it was run: as §2

galium = test: Test A postemergence herbicide test; assay type: in vivo, Galium aparine
How it was run: (§3)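 Young potted plants in a loam–sand mix, one- to two-leaf stage and 2–10 cm tall, receive the test chemical postemergence and stay in a greenhouse for approximately 10 days. Injury is then judged by eye against untreated plants, scored 0 (none) to 100 (complete control).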

blackgrass = test: Test A postemergence herbicide test; assay type: in vivo, Alopecurus myosuroides
How it was run: as §3

giant foxtail = test: Test A pre-/postemergence herbicide test; assay type: in vivo, Setaria faberii
How it was run: as §2

ryegrass, Italian = test: Test A pre-/postemergence herbicide test; assay type: in vivo, Lolium multiflorum
How it was run: as §2

ducksalad = test: Test B flooded paddy test; assay type: in vivo, Heteranthera limosa; settings: 500 g ai/ha, Flood; scale of 0 to 100 where 0 is no effect and 100 is complete control
How it was run: as §1

sedge, umbrella = test: Test B flooded paddy test; assay type: in vivo, Cyperus difformis; settings: 500 g ai/ha, Flood; scale of 0 to 100 where 0 is no effect and 100 is complete control
How it was run: as §1

ragweed = test: Test A pre-/postemergence herbicide test; assay type: in vivo, Ambrosia elatior
How it was run: as §2

barnyardgrass [1] = test: Test A pre-/postemergence herbicide test; assay type: in vivo, Echinochloa crus-galli
How it was run: as §2

barnyardgrass [2] = test: Test B flooded paddy test; assay type: in vivo, Echinochloa crus-galli; settings: 500 g ai/ha, Flood; scale of 0 to 100 where 0 is no effect and 100 is complete control
How it was run: as §1

pigweed = test: Test A pre-/postemergence herbicide test; assay type: in vivo, Amaranthus retroflexus
How it was run: as §2

[3] = 125 g ai/ha, 0 to 100 scale, 0 no effect, 100 complete control
[4] = 500 g ai/ha, 0 to 100 scale (0 no effect, 100 complete control)
[5] = 125 g ai/ha, visual rating, 0 to 100 scale, 0 no effect, 100 complete control, approximately 10 days, preemergence
[6] = Postemergence, 125 g ai/ha, 0 to 100 scale, 0 no effect, 100 complete control
[7] = preemergence, 500 g ai/ha, 0 to 100 scale
[8] = Postemergence, 500 g ai/ha, 0 to 100 scale (0 no effect, 100 complete control)
[9] = 125 g ai/ha, visual rating on 0 to 100 scale (0 no effect, 100 complete control), approx. 10 days
[10] = Postemergence, 125 g ai/ha, visual rating on 0 to 100 scale (0 no effect, 100 complete control), approx. 10 days
[11] = Preemergence, 125 g ai/ha, 0 to 100 scale where 0 is no effect and 100 is complete control
[12] = preemergence, 500 g ai/ha, 0 to 100 scale, 0 is no effect and 100 is complete control

Compound: O=C1NCC(c2cccc(OC(F)(F)C(F)F)c2)C1C(=O)Nc1ccccc1Cl (racemic) [Compound 125]
- Plant response rating, Rice (rice): 0
- Plant response rating, Corn (corn; [3]): 0
- Plant response rating, Corn (corn; [4]): 0
- Plant response rating, Kochia (kochia; [5]): 30
- Plant response rating, Kochia (kochia; [6]): 20
- Kochia plant response rating (0 to 100 scale, 0 is no effect, 100 is complete control) (kochia; Postemergence, 500 g ai/ha): 60
- Plant response rating, Kochia (kochia; [7]): 70
- Plant response rating, Wheat (wheat; [3]): 0
- Wheat plant response rating (0 to 100 scale, 0 is no effect, 100 is complete control) (wheat; 500 g ai/ha): 0
- Plant response rating, Galium (galium; [3]): 0
- Galium plant response rating (0 to 100 scale, 0 is no effect, 100 is complete control) (galium; 500 g ai/ha): 60
- Plant response rating, Blackgrass (blackgrass; [3]): 20
- Plant response rating, Blackgrass (blackgrass; [4]): 50
- Plant response rating, Foxtail, Giant (giant foxtail; [5]): 80
- Plant response rating, Foxtail, Giant (giant foxtail; [6]): 70
- Foxtail, Giant plant response rating (0 to 100 scale, 0 is no effect, 100 is complete control) (giant foxtail; Postemergence, 500 g ai/ha): 80
- Plant response rating, Foxtail, Giant (giant foxtail; [7]): 90
- Plant response rating, Ryegrass, Italian (ryegrass, Italian; [5]): 0
- Plant response rating, Ryegrass, Italian (ryegrass, Italian; [6]): 0
- Ryegrass, Italian plant response rating (0 to 100 scale, 0 is no effect, 100 is complete control) (ryegrass, Italian; Postemergence, 500 g ai/ha): 0
- Plant response rating, Ryegrass, Italian (ryegrass, Italian; [7]): 20
- Plant response rating, Ducksalad (ducksalad): 85
- Plant response rating, Sedge, Umbrella (sedge, umbrella): 0
- Plant response rating, Ragweed (ragweed; [5]): 0
- Plant response rating, Ragweed (ragweed; [6]): 0
- Ragweed plant response rating (0 to 100 scale, 0 is no effect, 100 is complete control) (ragweed; Postemergence, 500 g ai/ha): 0
- Plant response rating, Ragweed (ragweed; [7]): 0
- Plant response rating, Barnyardgrass (barnyardgrass [1]; [5]): 80
- Plant response rating, Barnyardgrass (barnyardgrass [1]; [6]): 60
- Plant response rating, Barnyardgrass (barnyardgrass [1]; [8]): 70
- Plant response rating, Barnyardgrass (barnyardgrass [1]; preemergence, 500 g ai/ha, 0 to 100 scale (0 no effect, 100 complete control)): 90
- Plant response rating, Barnyardgrass (barnyardgrass [2]): 30
- Plant response rating, Pigweed (pigweed; [5]): 0
- Plant response rating, Pigweed (pigweed; [6]): 0
- Pigweed plant response rating (0 to 100 scale, 0 is no effect, 100 is complete control) (pigweed; Postemergence, 500 g ai/ha): 20
- Plant response rating, Pigweed (pigweed; [7]): 0

Compound: O=C1NCC(c2ccc(Cl)s2)C1C(=O)Nc1ccccc1F (stereo not drawn) [Compound 292]
- Plant response rating, Rice (rice): 0
- Plant response rating, Corn (corn; [9]): 0
- Plant response rating, Corn (corn; [4]): 0
- Plant response rating, Kochia (kochia; [10]): 0
- Plant response rating, Kochia (kochia; [8]): 0
- Plant response rating, Kochia (kochia; [11]): 30
- Plant response rating, Kochia (kochia; [12]): 80
- Plant response rating, Wheat (wheat; [9]): 0
- Plant response rating, Wheat (wheat; [4]): 0
- Plant response rating, Galium (galium; [9]): 10
- Plant response rating, Galium (galium; [4]): 20
- Plant response rating, Blackgrass (blackgrass; [9]): 0
- Plant response rating, Blackgrass (blackgrass; [4]): 0
- Plant response rating, Foxtail, Giant (giant foxtail; [10]): 50
- Plant response rating, Foxtail, Giant (giant foxtail; [8]): 60
- Plant response rating, Foxtail, Giant (giant foxtail; [11]): 50
- Plant response rating, Foxtail, Giant (giant foxtail; [12]): 60
- Plant response rating, Ryegrass, Italian (ryegrass, Italian; [10]): 0
- Plant response rating, Ryegrass, Italian (ryegrass, Italian; [8]): 0
- Plant response rating, Ryegrass, Italian (ryegrass, Italian; [11]): 0
- Ryegrass, Italian plant response rating (ryegrass, Italian; Preemergence, 500 g ai/ha, visual rating on 0 to 100 scale (0 no effect, 100 complete control)): 0
- Plant response rating, Ducksalad (ducksalad): 100
- Plant response rating, Sedge, Umbrella (sedge, umbrella): 0
- Plant response rating, Ragweed (ragweed; [10]): 0
- Plant response rating, Ragweed (ragweed; [8]): 0
- Plant response rating, Ragweed (ragweed; [11]): 0
- Plant response rating, Ragweed (ragweed; [12]): 0
- Plant response rating, Barnyardgrass (barnyardgrass [1]; [10]): 50
- Plant response rating, Barnyardgrass (barnyardgrass [1]; [8]): 70
- Plant response rating, Barnyardgrass (barnyardgrass [1]; [11]): 70
- Plant response rating, Barnyardgrass (barnyardgrass [1]; [12]): 80
- Plant response rating, Barnyardgrass (barnyardgrass [2]): 50
- Plant response rating, Pigweed (pigweed; [10]): 0
- Plant response rating, Pigweed (pigweed; [8]): 0
- Plant response rating, Pigweed (pigweed; [11]): 0
- Plant response rating, Pigweed (pigweed; [12]): 0
